In ChEMBL document CHEMBL3046329, “Sensitivity to silthiofam, tebuconazole and difenoconazole of Gaeumannomyces graminis var. tritici isolates from China” (Pest Manag Sci, 2012):
≈ marks a conversion by molar mass, not a printed value.

How the values were obtained:
Type in all cases: functional, organism-based
Gaeumannomyces tritici [1] = experiment: Antifungal activity against sithiofam-sensitive Gaeumannomyces graminis var. tritici isolate JS08 expressing C2 genetic cluster assessed as reduction in fungal colony diameter after 4 days; conditions: isolate JS08, 96 h
Gaeumannomyces tritici [2] = experiment: Antifungal activity against sithiofam-resistant Gaeumannomyces graminis var. tritici isolate JS06 expressing C1 genetic cluster assessed as reduction in fungal colony diameter after 4 days; conditions: isolate JS06, 96 h
Gaeumannomyces tritici [3] = experiment: Antifungal activity against sithiofam-resistant Gaeumannomyces graminis var. tritici isolate JS04 expressing C1 genetic cluster assessed as reduction in fungal colony diameter after 4 days; conditions: isolate JS04, 96 h
Gaeumannomyces tritici [4] = experiment: Antifungal activity against sithiofam-sensitive Gaeumannomyces graminis var. tritici isolate JS03 expressing C1 genetic cluster assessed as reduction in fungal colony diameter after 4 days; conditions: isolate JS03, 96 h
Gaeumannomyces tritici [5] = experiment: Antifungal activity against sithiofam-sensitive Gaeumannomyces graminis var. tritici isolate JS02 expressing C1 genetic cluster assessed as reduction in fungal colony diameter after 4 days; conditions: isolate JS02, 96 h
Gaeumannomyces tritici [6] = experiment: Antifungal activity against sithiofam-resistant Gaeumannomyces graminis var. tritici isolate JS11 expressing C1 genetic cluster assessed as reduction in fungal colony diameter after 4 days; conditions: isolate JS11, 96 h
Gaeumannomyces tritici [7] = experiment: Antifungal activity against sithiofam-resistant Gaeumannomyces graminis var. tritici isolate JS09 expressing C1 genetic cluster assessed as reduction in fungal colony diameter after 4 days; conditions: isolate JS09, 96 h
Gaeumannomyces tritici [8] = experiment: Antifungal activity against sithiofam-sensitive Gaeumannomyces graminis var. tritici isolate HN21 expressing C2 genetic cluster assessed as reduction in fungal colony diameter after 4 days; conditions: isolate HN21, 96 h
Gaeumannomyces tritici [9] = experiment: Antifungal activity against sithiofam-sensitive Gaeumannomyces graminis var. tritici isolate HN19 expressing C2 genetic cluster assessed as reduction in fungal colony diameter after 4 days; conditions: isolate HN19, 96 h
Gaeumannomyces tritici [10] = experiment: Antifungal activity against sithiofam-sensitive Gaeumannomyces graminis var. tritici isolate HN29 expressing C2 genetic cluster assessed as reduction in fungal colony diameter after 4 days; conditions: isolate HN29, 96 h
Gaeumannomyces tritici [11] = experiment: Antifungal activity against sithiofam-sensitive Gaeumannomyces graminis var. tritici isolate HN26 expressing C2 genetic cluster assessed as reduction in fungal colony diameter after 4 days; conditions: isolate HN26, 96 h
Gaeumannomyces tritici [12] = experiment: Antifungal activity against sithiofam-sensitive Gaeumannomyces graminis var. tritici isolate HN23 expressing C2 genetic cluster assessed as reduction in fungal colony diameter after 4 days; conditions: isolate HN23, 96 h
Gaeumannomyces tritici [13] = experiment: Antifungal activity against sithiofam-sensitive Gaeumannomyces graminis var. tritici isolate HN22 expressing C2 genetic cluster assessed as reduction in fungal colony diameter after 4 days; conditions: isolate HN22, 96 h
Gaeumannomyces tritici [14] = experiment: Antifungal activity against sithiofam-sensitive Gaeumannomyces graminis var. tritici isolate HN14 expressing C2 genetic cluster assessed as reduction in fungal colony diameter after 4 days; conditions: isolate HN14, 96 h
Gaeumannomyces tritici [15] = experiment: Antifungal activity against sithiofam-resistant Gaeumannomyces graminis var. tritici isolate HN13 expressing C1 genetic cluster assessed as reduction in fungal colony diameter after 4 days; conditions: isolate HN13, 96 h
Gaeumannomyces tritici [16] = experiment: Antifungal activity against sithiofam-resistant Gaeumannomyces graminis var. tritici isolate HN10 expressing C1 genetic cluster assessed as reduction in fungal colony diameter after 4 days; conditions: isolate HN10, 96 h
Gaeumannomyces tritici [17] = experiment: Antifungal activity against sithiofam-resistant Gaeumannomyces graminis var. tritici isolate HN09 expressing C1 genetic cluster assessed as reduction in fungal colony diameter after 4 days; conditions: isolate HN09, 96 h
Gaeumannomyces tritici [18] = experiment: Antifungal activity against sithiofam-resistant Gaeumannomyces graminis var. tritici isolate HN06 expressing C1 genetic cluster assessed as reduction in fungal colony diameter after 4 days; conditions: isolate HN06, 96 h
Gaeumannomyces tritici [19] = experiment: Antifungal activity against sithiofam-resistant Gaeumannomyces graminis var. tritici isolate HN05 expressing C1 genetic cluster assessed as reduction in fungal colony diameter after 4 days; conditions: isolate HN05, 96 h
Gaeumannomyces tritici [20] = experiment: Antifungal activity against sithiofam-resistant Gaeumannomyces graminis var. tritici isolate HN04 expressing C1 genetic cluster assessed as reduction in fungal colony diameter after 4 days; conditions: isolate HN04, 96 h
Gaeumannomyces tritici [21] = experiment: Antifungal activity against sithiofam-resistant Gaeumannomyces graminis var. tritici isolate HN03 expressing C1 genetic cluster assessed as reduction in fungal colony diameter after 4 days; conditions: isolate HN03, 96 h
Gaeumannomyces tritici [22] = experiment: Antifungal activity against sithiofam-sensitive Gaeumannomyces graminis var. tritici isolate AH09 expressing C2 genetic cluster assessed as reduction in fungal colony diameter after 4 days; conditions: isolate AH09, 96 h
Gaeumannomyces tritici [23] = experiment: Antifungal activity against sithiofam-sensitive Gaeumannomyces graminis var. tritici isolate HN15 expressing C2 genetic cluster assessed as reduction in fungal colony diameter after 4 days; conditions: isolate HN15, 96 h
Gaeumannomyces tritici [24] = experiment: Antifungal activity against sithiofam-sensitive Gaeumannomyces graminis var. tritici isolate AH16 expressing C2 genetic cluster assessed as reduction in fungal colony diameter after 4 days; conditions: isolate AH16, 96 h
Gaeumannomyces tritici [25] = experiment: Antifungal activity against sithiofam-sensitive Gaeumannomyces graminis var. tritici isolate AH15 expressing C2 genetic cluster assessed as reduction in fungal colony diameter after 4 days; conditions: isolate AH15, 96 h
Gaeumannomyces tritici [26] = experiment: Antifungal activity against sithiofam-sensitive Gaeumannomyces graminis var. tritici isolate AH07 expressing C2 genetic cluster assessed as reduction in fungal colony diameter after 4 days; conditions: isolate AH07, 96 h
Gaeumannomyces tritici [27] = experiment: Antifungal activity against sithiofam-resistant Gaeumannomyces graminis var. tritici isolate AH06 expressing C1 genetic cluster assessed as reduction in fungal colony diameter after 4 days; conditions: isolate AH06, 96 h
Gaeumannomyces tritici [28] = experiment: Antifungal activity against sithiofam-sensitive Gaeumannomyces graminis var. tritici isolate AH05 expressing C2 genetic cluster assessed as reduction in fungal colony diameter after 4 days; conditions: isolate AH05, 96 h
Gaeumannomyces tritici [29] = experiment: Antifungal activity against sithiofam-sensitive Gaeumannomyces graminis var. tritici isolate AH04 expressing C2 genetic cluster assessed as reduction in fungal colony diameter after 4 days; conditions: isolate AH04, 96 h
Gaeumannomyces tritici [30] = experiment: Antifungal activity against sithiofam-sensitive Gaeumannomyces graminis var. tritici isolate AH03 expressing C2 genetic cluster assessed as reduction in fungal colony diameter after 4 days; conditions: isolate AH03, 96 h
Gaeumannomyces tritici [31] = experiment: Antifungal activity against sithiofam-resistant Gaeumannomyces graminis var. tritici isolate AH02 expressing C1 genetic cluster assessed as reduction in fungal colony diameter after 4 days; conditions: isolate AH02, 96 h
Gaeumannomyces tritici [32] = experiment: Antifungal activity against sithiofam-sensitive Gaeumannomyces graminis var. tritici isolate AH01 expressing C2 genetic cluster assessed as reduction in fungal colony diameter after 4 days; conditions: isolate AH01, 96 h
Gaeumannomyces tritici [33] = experiment: Antifungal activity against sithiofam-sensitive Gaeumannomyces graminis var. tritici isolate SD04 expressing C2 genetic cluster assessed as reduction in fungal colony diameter after 4 days; conditions: isolate SD04, 96 h
Gaeumannomyces tritici [34] = experiment: Antifungal activity against sithiofam-sensitive Gaeumannomyces graminis var. tritici isolate SD02 expressing C2 genetic cluster assessed as reduction in fungal colony diameter after 4 days; conditions: isolate SD02, 96 h
Gaeumannomyces tritici [35] = experiment: Antifungal activity against sithiofam-resistant Gaeumannomyces graminis var. tritici isolate AH14 expressing C1 genetic cluster assessed as reduction in fungal colony diameter after 4 days; conditions: isolate AH14, 96 h
Gaeumannomyces tritici [36] = experiment: Antifungal activity against sithiofam-resistant Gaeumannomyces graminis var. tritici isolate AH13 expressing C1 genetic cluster assessed as reduction in fungal colony diameter after 4 days; conditions: isolate AH13, 96 h
Gaeumannomyces tritici [37] = experiment: Antifungal activity against sithiofam-sensitive Gaeumannomyces graminis var. tritici isolate AH12 expressing C2 genetic cluster assessed as reduction in fungal colony diameter after 4 days; conditions: isolate AH12, 96 h

Compound | EC50 (Gaeumannomyces tritici [1]) [ng/mL] | EC50 (Gaeumannomyces tritici [2]) [ng/mL] | EC50 (Gaeumannomyces tritici [3]) [ng/mL] | EC50 (Gaeumannomyces tritici [4]) [ng/mL] | EC50 (Gaeumannomyces tritici [5]) [ng/mL] | EC50 (Gaeumannomyces tritici [6]) [ng/mL] | EC50 (Gaeumannomyces tritici [7]) [ng/mL] | EC50 (Gaeumannomyces tritici [8]) [ng/mL] | EC50 (Gaeumannomyces tritici [9]) [ng/mL] | EC50 (Gaeumannomyces tritici [10]) [ng/mL] | EC50 (Gaeumannomyces tritici [11]) [ng/mL] | EC50 (Gaeumannomyces tritici [12]) [ng/mL] | EC50 (Gaeumannomyces tritici [13]) [ng/mL] | EC50 (Gaeumannomyces tritici [14]) [ng/mL] | EC50 (Gaeumannomyces tritici [15]) [ng/mL] | EC50 (Gaeumannomyces tritici [16]) [ng/mL] | EC50 (Gaeumannomyces tritici [17]) [ng/mL] | EC50 (Gaeumannomyces tritici [18]) [ng/mL] | EC50 (Gaeumannomyces tritici [19]) [ng/mL] | EC50 (Gaeumannomyces tritici [20]) [ng/mL] | further results
C=CCNC(=O)c1c([Si](C)(C)C)sc(C)c1C [SILTHIOFAM] | 0.2 (≈ 0.000748 µM) | 111000 (≈ 417 µM) | 30300 (≈ 113 µM) | 1.6 (≈ 0.00598 µM) | 1.3 (≈ 0.00486 µM) | 46800 (≈ 175 µM) | 34200 (≈ 128 µM) | 0.5 (≈ 0.00187 µM) | 0.1 (≈ 0.000374 µM) | 0.2 (≈ 0.000748 µM) | 1.8 (≈ 0.00673 µM) | 0.9 (≈ 0.00336 µM) | 2.4 (≈ 0.00897 µM) | 0.9 (≈ 0.00336 µM) | 51800 (≈ 194 µM) | 30200 (≈ 113 µM) | 106000 (≈ 398 µM) | 29900 (≈ 112 µM) | 23800 (≈ 89.1 µM) | 31900 (≈ 119 µM) | EC50 (Gaeumannomyces tritici [21]): 30000 ng/mL (≈ 112 µM); EC50 (Gaeumannomyces tritici [22]): 0.3 ng/mL (≈ 0.00112 µM); EC50 (Gaeumannomyces tritici [23]): 1.1 ng/mL (≈ 0.00411 µM); EC50 (Gaeumannomyces tritici [24]): 0.3 ng/mL (≈ 0.00112 µM); EC50 (Gaeumannomyces tritici [25]): 0.5 ng/mL (≈ 0.00187 µM); EC50 (Gaeumannomyces tritici [26]): 0.6 ng/mL (≈ 0.00224 µM); EC50 (Gaeumannomyces tritici [27]): 29100 ng/mL (≈ 109 µM); EC50 (Gaeumannomyces tritici [28]): 1.3 ng/mL (≈ 0.00486 µM); EC50 (Gaeumannomyces tritici [29]): 1.2 ng/mL (≈ 0.00449 µM); EC50 (Gaeumannomyces tritici [30]): 0.3 ng/mL (≈ 0.00112 µM); EC50 (Gaeumannomyces tritici [31]): 51800 ng/mL (≈ 194 µM); EC50 (Gaeumannomyces tritici [32]): 1.1 ng/mL (≈ 0.00411 µM); EC50 (Gaeumannomyces tritici [33]): 0.2 ng/mL (≈ 0.000748 µM); EC50 (Gaeumannomyces tritici [34]): 3.6 ng/mL (≈ 0.0135 µM); EC50 (Gaeumannomyces tritici [35]): 39900 ng/mL (≈ 149 µM); EC50 (Gaeumannomyces tritici [36]): 70200 ng/mL (≈ 263 µM); EC50 (Gaeumannomyces tritici [37]): 0.6 ng/mL (≈ 0.00224 µM)
CC(C)(C)C(O)(CCc1ccc(Cl)cc1)Cn1cncn1 (centres undefined) [TEBUCONAZOLE] | 51 (≈ 0.166 µM) | 85 (≈ 0.276 µM) | 201 (≈ 0.652 µM) | 74.2 (≈ 0.241 µM) | 54.7 (≈ 0.178 µM) | 43.7 (≈ 0.142 µM) | 29.8 (≈ 0.0968 µM) | 60.9 (≈ 0.198 µM) | 47.8 (≈ 0.155 µM) | 76 (≈ 0.247 µM) | 72.2 (≈ 0.235 µM) | 78 (≈ 0.253 µM) | 39 (≈ 0.127 µM) | 47.9 (≈ 0.156 µM) | 68.9 (≈ 0.224 µM) | 69.1 (≈ 0.224 µM) | 41.5 (≈ 0.135 µM) | 53.3 (≈ 0.173 µM) | 49.8 (≈ 0.162 µM) | 56 (≈ 0.182 µM) | EC50 (Gaeumannomyces tritici [21]): 72.4 ng/mL (≈ 0.235 µM); EC50 (Gaeumannomyces tritici [22]): 95.2 ng/mL (≈ 0.309 µM); EC50 (Gaeumannomyces tritici [23]): 51.6 ng/mL (≈ 0.168 µM); EC50 (Gaeumannomyces tritici [24]): 96.5 ng/mL (≈ 0.313 µM); EC50 (Gaeumannomyces tritici [25]): 26.3 ng/mL (≈ 0.0854 µM); EC50 (Gaeumannomyces tritici [26]): 64.7 ng/mL (≈ 0.21 µM); EC50 (Gaeumannomyces tritici [27]): 28.3 ng/mL (≈ 0.0919 µM); EC50 (Gaeumannomyces tritici [28]): 90.2 ng/mL (≈ 0.293 µM); EC50 (Gaeumannomyces tritici [29]): 231 ng/mL (≈ 0.752 µM); EC50 (Gaeumannomyces tritici [30]): 62.2 ng/mL (≈ 0.202 µM); EC50 (Gaeumannomyces tritici [31]): 99.9 ng/mL (≈ 0.325 µM); EC50 (Gaeumannomyces tritici [32]): 25.4 ng/mL (≈ 0.0825 µM); EC50 (Gaeumannomyces tritici [33]): 127 ng/mL (≈ 0.412 µM); EC50 (Gaeumannomyces tritici [34]): 57.5 ng/mL (≈ 0.187 µM); EC50 (Gaeumannomyces tritici [35]): 26.5 ng/mL (≈ 0.0861 µM); EC50 (Gaeumannomyces tritici [36]): 302 ng/mL (≈ 0.981 µM); EC50 (Gaeumannomyces tritici [37]): 41.6 ng/mL (≈ 0.135 µM)
